Results from US11248023B2 (NEURACLE SCIENCE CO., LTD., priority 2015, dated 2022).
Square brackets hold non-standard residues; d marks the D form. Peptide text beside a SMILES is read from it. PEG = not defined here

How the values were obtained:
[1] = test system: neurons in the amygdala and arcuate nucleus; experiment: Neuron activity after nasal inhalation of GALR2 agonist; assay type: in vivo, mice; settings: 8 μg nasal inhalation, 1-2 h; like intracerebroventricular injection
Description: 1-2 h after nasal inhalation, the results were recorded. The results of nasal inhalation were compared with those of intracerebroventricular injection.

[2] = Stability in 100% fetal bovine serum, residual potency via IP3 production in GALR2-expressing cells; settings: 37° C., 0-72 h, IP3 production in GALR2-expressing cells
Description: The stability of the spexin-based mutant peptides was investigated. To this end, first, each modified mutant peptide at an initial concentration 10 μM was allowed to react in 100% fetal bovine serum (FBS) at 37° C. for 0, 3, 6, 12, 24, 48, and 72 h. Thereafter, the potencies of the mutant peptide toward GALR2 were determined via inositol 1,4,5-triphosphate (IP3) production in GALR2-expressing cells. For the IP3 assay, cells were seeded in 12-well plates at a density of 2.5×10^5 cells/well and then the next day, cells were treated with a mixture of 1 μg of GALR2-encoding plasmid DNA and Lipofectamine 2000 (Invitrogen). On day following treatment, cells were incubated in M199 media containing 1% FBS, 1% L-glutamine, 1% antibiotic, and myo-^3H inositol 1 μCi/well for 20 h to radioactively label inositol phosphate. After this stage was finished, cells were allowed to react in buffer A (140 mM NaCl, 20 mM Hepes, 4 mM KCl, 8 mM D-glucose, 1 mM MgCl2, 1 mM CaCl2), 1 mg/ml free fatty acid bovine serum albumin, and 10 mM LiCl at pH 7.2) for 30 min. After the mutant peptide was allowed to react in 100% FBS, cells were treated with the mutant peptide for 40 min at 37° C. Media was removed, and reactions were terminated by addition of 1 ml of 10 mM cold formic acid to each well. The plates were allowed to stand at 4° C. for 30 min. Then, the resulting extracts were transferred to 6-mL plastic tubes containing 500 μl AG1-8X anion exchange columns. The tubes were gently mixed with a vortexer, and the supernatants were removed from the labeled mixture. Two washes with 1 ml of triple-distilled water were performed followed by two additional washes with 60 mM ammonium formate/5 mM sodium tetraborate. The radioactively labeled mixture was eluted from the column with 1 ml of 1 M ammonium formate/0.1 M formic acid (1 mL), and 800 μl from the elution were taken from each tube and transferred into scintillation vials. Then, 2 ml of scintillation cocktail solution (Ultima Gold™, Perkin Elmer, Waltham Mass., USA) was added to each sample. The radioactivity of the mixture solution of the radioactively labeled mixture and the scintillation cocktail solution was measured using a TRI carb 2100TR liquid scintillation analyzer (Packard).

[3] = Dietary intake and body weight change after intracerebroventricular administration; assay type: in vivo, mice
Description: C57BL/6J black male mice (9 weeks of age) were acquired from Orientbio (www.orient.co.kr). Mice were housed in a cage at 20-24° C. and 40-70% relative humidity under a normal 12:12 light-dark cycle (lights onset at 8:00 am), with food and water available ad libitum. All experiments were designed to minimize the number of animals. Animals were anesthetized to minimize their suffering in accordance with the Guidelines for Ethical Care and Use of Experimental Animals, which were approved by the institutional animal care and use committee of Korea University. For intracerebroventricular injection, mice were anesthetized with sodium pentobarbital (50 mg/kg, i.p.), mounted on a stereotaxic apparatus, and implanted with a 26-gauge stainless steel cannula into the right side of the lateral ventricle. Two jewelry screws were implanted into the skull as anchors, and the whole assembly was affixed to the skull with dental cement. Mice were recovered at least 2 weeks before experimentation. The GALR2 agonist was administered using a Hamilton syringe at a rate of 0.5 μl/min. Dietary intakes and weight changes were determined by measuring the weights of feed and mice before agonist administration, measuring the weights of the feed over 1, 2, 4, 12, and 24 h, and comparing the weight of mice after 24 h with the initial weight.
The effects of the GALR2 agonist on feeding behaviors and changes in body weight were investigated by the following procedure. First, a cannula was inserted into the third ventricle.

[4] = target: T1, GALR2 (Homo sapiens, UniProt O43603); experiment: SRE-luc assay in HEK293-Gqi cells expressing GALR2; assay type: cell-based; settings: GALR2 versus GALR3
T1 construct: expressed in transfected cells
T1 sequence (O43603 1-387): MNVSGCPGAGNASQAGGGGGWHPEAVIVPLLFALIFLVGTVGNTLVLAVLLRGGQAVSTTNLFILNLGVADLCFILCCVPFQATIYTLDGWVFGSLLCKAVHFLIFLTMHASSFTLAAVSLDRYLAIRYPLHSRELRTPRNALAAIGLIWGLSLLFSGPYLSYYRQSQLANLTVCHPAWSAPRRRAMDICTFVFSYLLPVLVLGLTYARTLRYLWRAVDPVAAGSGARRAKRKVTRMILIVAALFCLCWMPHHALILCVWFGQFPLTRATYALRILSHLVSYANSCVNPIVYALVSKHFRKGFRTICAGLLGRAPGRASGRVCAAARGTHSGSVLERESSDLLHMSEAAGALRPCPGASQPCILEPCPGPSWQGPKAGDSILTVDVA
Description: The HEK293-Gqi stable cell line is a cell line in which the C-terminus of Gq is substituted with 3 amino acids of G to convert the signals of G to Gq signaling pathways. […] GALR subtypes 1 and 3 induce inhibitory G-coupled signaling, while GALR subtype 2 triggers stimulatory Gq-coupled signaling. This difference explains the use of the HEK293-Gqi stable cell line in which the C-terminus of Gq is substituted with 3 amino acids of G to convert the signals of Gi to Gq signaling pathways.
GALR subtypes 1 and 3 induce inhibitory G-coupled signaling, while GALR subtype 2 triggers stimulatory Gq-coupled signaling. This difference explains the use of the HEK293-Gqi stable cell line in which the C-terminus of Gq is substituted with 3 amino acids of G to convert the signals of G to Gq signaling pathways. The activities of the receptors were measured using an SRE-luc assay system designed to express luciferase (luc) by serum responsive element (SRE) promoters. Light caused by a reaction between expressed luciferase and luciferin as a substrate was detected using a luminometer so that receptor subtype-specific or ligand-specific cellular activities were observed. One day after HEK293-Gqi cells were seeded in 48-well plates at a density of 2×10^4 cells/well, plasmid DNA and SRE-luc plasmid DNA, which encode GALR2 and GALR3, respectively, were mixed in a ratio of 1:1 (75 ng+75 ng)/well, and treated with Effectene reagent (2 μl/well). After 3 h, media were replaced with DMEM media supplemented with 10% FBS. After 24 h, the DMEM media were replaced with FBS-free DMEM media. After 16 h, each constructed spexin-based mutant peptide was further incubated at 37° C. for 6 h. After this stage was finished, cells were washed with PBS and lysed by the addition of 100 μl of lysis buffer (0.1% triton X-100, 0.2M Tris, pH 8.0) at room temperature for 20 min. The luciferase activity was determined using a synergy 2 Multi-mode microplate reader (BioTek, Winooski, Vt., USA) with automatic injection of a luciferin solution (0.5 M MgCl2, 0.1 M ATP, 0.05 M D-luciferin, 1 M KH2PO4, pH 7.8).

[5] = test system: neurons in the amygdala; experiment: c-fos immunohistochemistry, amygdala and other brain regions; assay type: in vivo, mice; settings: 0.4, 4, and 40 μg to the ventricle, 1-2 h
Description: Then, the brain was placed in a mold for brain tissue, transferred to and frozen in an isopentane solution kept cold on dry ice with an OCT composite containing 30% sucrose solution, and stored at −80° C. before use. The frozen brain tissue was sliced at 40 μm using a cryostat microtome, followed by immunohistochemistry.

[6] = Open field test (OFT) in anxiety-induced mice; assay type: in vivo; settings: vs DMSO
Description: The effect of the GALR2 agonist on anxiety reduction was investigated by the OFT for simultaneously measuring movement and anxiety (FIG. 13). The OFT is based on the behavior of mice that prefer to stay at the periphery rather than at the center of a quadrangular area. After mice were placed at the center of a quadrangular area, the proportion of the time spent in the center (“% time in center”), the proportion of the moving distance in the center (“% distance in center”), and the total moving distance (“total distance”) were measured for 10 min from the time when the animals moved to the periphery. The results were divided into two equal periods (5 min each) for analysis. 2-3 h after 4 μg of DMSO as a control or the GALR2 agonist dN1-Qu was administered to the lateral ventricle of animals, which had previously been evoked by repeated electric shocks to induce anxiety, anxiety and movement were measured.

[7] = Elevated plus maze (EPM) test; assay type: in vivo, mice; settings: 4 μg lateral ventricle, 2-3 h after administration, vs DMSO
Description: The effect of the GALR2 agonist dN1-Qu on recovery from anxiety disorder was investigated. In the same manner as in Example 3, a cannula was inserted into the lateral ventricle of mice. 2-3 h after dimethyl sulfoxide (DMSO) as a control or 4 μg of the GALR2 agonist dN1-Qu as an experimental group was administered, the elevated plus maze (EPM) test was conducted to measure anxiety/obsession. The EPM test uses a cross-shaped maze elevated above the floor with closed arms, open arms, and a center and is based on the behavior of mice that prefer to remain in the closed arms. Anxiety is judged to be lower when a larger number of mice remain in the open arms. After mice was placed on the plus maze, the time spent in the open arms (“time in open arm”), the number of mice entering the open arms (“number of open arm entry”), and the total movement (“number of center crossing”) were measured for the first 15 min. The results for the last 10 min were used for analysis.

[8] = Sucrose preference test (SPT); assay type: in vivo, mice; settings: 2 days
Description: The effect of the GALR2 agonist dN1-Qu on addiction reduction was investigated. In the same manner as in Example 3, a cannula was inserted into the lateral ventricle of mice. After injection of dimethyl sulfoxide (DMSO) and 0.4, 4, and 40 μg of dN1-Qu, the consumptions of water and 1% sucrose solution were measured for 2 days by the sucrose preference test (SPT) for addiction evaluation. According to this test, tap water and sucrose solution were filled in respective bottles and weighed before injection of the agonist. After free access to the fluids for 2 days, the bottles were weighed to compare the total consumption of the fluids and the percentage of the consumed sucrose solution in the total fluid consumption.

[9] = test system: neurons in the arcuate nucleus; experiment: c-fos immunohistochemistry, arcuate nucleus, after ventricular administration; assay type: in vivo, mice; settings: 0.4, 4, and 40 μg to the ventricle, 1 h
[10] = concentrations of 0.5, 1, and 3
[11] = 3 μg into the third ventricle, 24 h, compared to spexin-administered mice and control

With “PEG-NWTdANAALYLFGPdQ-NH2 ({PEG}-NWT[dA]NAALYLFGP[dQ]-NH2; reading uncertain) [PEG-se]” the “activity of neurons in the amygdala and arcuate nucleus” value [1] was “increase the activity of neurons”, the “stability in serum (100% FBS)” value [2] was “increased stability” and the “effect on dietary intake after GALR2 antagonist M871” value ([3]; 3 μg following 10 μg of M871) was “disappeared”. For the same molecule, the “effect on weight loss after GALR2 antagonist M871” value ([3]; 3 μg following 10 μg of M871) was “disappeared”, the dietary intake [3, 10] was “dietary intakes and weight losses were observed” and the weight loss [3, 10] was “dietary intakes and weight losses were observed”. For the same molecule, the “specificity for GALR2” value [4] was “specificity for GALR2”.
With CC(C)C[C@H](NC(=O)[C@H](C)NC(=O)[C@H](C)NC(=O)[C@H](CC(N)=O)NC(=O)[C@@H]1CCCN1C(=O)[C@@H](NC(=O)[C@H](Cc1c[nH]c2ccccc12)NC(=O)[C@H](N)CC(N)=O)[C@@H](C)O)C(=O)N[C@@H](Cc1ccc(O)cc1)C(=O)N[C@@H](CC(C)C)C(=O)N[C@@H](Cc1ccccc1)C(=O)NCC(=O)N1CCC[C@H]1C(=O)N[C@@H](CCC(N)=O)C(N)=O [dN1-Qu] (H-[dN]WTPNAALYLFGPQ-NH2) the “stability in serum (100% FBS)” value [2] was “increased stability”, the “c-fos expressing neurons in the amygdala” value [5] was “increase in the number of c-fos expressing neurons” and the “neurons in other emotion-regulating brain regions” value [5] was “not activated”. The “% distance in center” value ([6]; first 5-min period) was “increased”, the total distance ([6]; first 5-min period) was “no difference” and the “% distance in center” value ([6]; second 5-min period) was “increased”. The “change in body weight” value [3, 11] was “weight loss was effectively induced”, the dietary intake [3, 11] was “significantly decreased” and the “number of center crossing” value [7] was “no difference”. The “number of open arm entry” value [7] was “increased”, the “time in open arm” value [7] was “increased” and the “total consumption of the fluids” value [8] was “no difference”. For the same molecule, the consumption of sucrose ([8]; 1% sucrose solution) was “considerably reduced”, the “sucrose preference (consumed sucrose solution in total fluid consumption)” value ([8]; 1% sucrose, 0.4, 4, and 40 μg lateral ventricle, control ~70%) was ≤ 60% and the “specificity for GALR2” value [4] was “specificity for GALR2”. The “c-fos expressing neurons in the arcuate nucleus” value [9] was “increase in the number of c-fos expressing neurons”.
